# Read-outs that look alike come from different tables or passages of the source.
# Key:
# [1] = target: T1, Human recombinant PDE2A (hPDE2A) (Homo sapiens, UniProt O00408); test: In vitro assay PDE2A (SPA, 3H-cGMP hydrolysis); assay type: biochemical; settings: for Emax: read-out: hPDE2A Emax
# T1 construct: His tag (inferred from metal chelate purification); made in house; host or cells: Sf9 insect cells (baculovirus)
# [2] = target: T2, Human recombinant PDE3A (hPDE3A) (Homo sapiens, UniProt Q14432); test: In vitro assay PDE3A (SPA, 3H-cAMP hydrolysis); assay type: biochemical; settings: for IC50: hPDE3B pIC50; for Emax: read-out: hPDE3B Emax, read-out: Emax;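 as to Emax: the method names PDE3A and the table heading PDE3B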
# T2 construct: purchased Scottish Biomedical; host or cells: Sf9 insect cells
# How it was run: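 Human PDE3A, cloned from brain, as partially purified Sf9 lysate. Substrate 0.4 μM cAMP plus [3H]-cAMP (2.4 μCi/ml final) in 50 mM Tris pH 7.8, 8.3 mM MgCl2, 1.7 mM EGTA, 60 min at room temperature, 1% DMSO final. Hydrolysis read by SPA scintillation counting against no-enzyme blanks and DMSO controls.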
# [3] = target: T3, Human recombinant PDE10A (hPDE10A) (Homo sapiens, UniProt Q9Y233); test: In vitro assay PDE10A, human clone (SPA, 3H-cAMP hydrolysis); assay type: biochemical; settings: for Emax: read-out: hPDE10A2 or rPDE10A2 Emax
# T3 construct: His tag (inferred from metal chelate purification); made in house; host or cells: Sf9 insect cells (baculovirus)
# How it was run: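 Human recombinant PDE10A was expressed in Sf9 cells via baculovirus and incubated with compound in 50 mM Tris pH 7.8, 8.3 mM MgCl2, 1.7 mM EGTA. Substrate was 60 nM cAMP plus 0.008 μCi 3H-cAMP for 60 min at room temperature, read by SPA scintillation counting. Controls used 1% DMSO, and blanks omitted enzyme.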
# PDE2A = target: T4, PDE2A (Rattus norvegicus, UniProt Q01062); test: PDE2 occupancy by test compounds, ex-vivo autoradiography with [3H]B-17a; assay type: in vivo, Male Wistar rats; settings: for receptor occupancy at 10 mg/kg: route PO (oral), percentage receptor occupancy, ex-vivo autoradiography, striatum
# T4 construct: Twenty μm-thick striatal sections were cut; from tissue; host or cells: rat brain, striatal sections
# T4 sequence (Q01062 1-928): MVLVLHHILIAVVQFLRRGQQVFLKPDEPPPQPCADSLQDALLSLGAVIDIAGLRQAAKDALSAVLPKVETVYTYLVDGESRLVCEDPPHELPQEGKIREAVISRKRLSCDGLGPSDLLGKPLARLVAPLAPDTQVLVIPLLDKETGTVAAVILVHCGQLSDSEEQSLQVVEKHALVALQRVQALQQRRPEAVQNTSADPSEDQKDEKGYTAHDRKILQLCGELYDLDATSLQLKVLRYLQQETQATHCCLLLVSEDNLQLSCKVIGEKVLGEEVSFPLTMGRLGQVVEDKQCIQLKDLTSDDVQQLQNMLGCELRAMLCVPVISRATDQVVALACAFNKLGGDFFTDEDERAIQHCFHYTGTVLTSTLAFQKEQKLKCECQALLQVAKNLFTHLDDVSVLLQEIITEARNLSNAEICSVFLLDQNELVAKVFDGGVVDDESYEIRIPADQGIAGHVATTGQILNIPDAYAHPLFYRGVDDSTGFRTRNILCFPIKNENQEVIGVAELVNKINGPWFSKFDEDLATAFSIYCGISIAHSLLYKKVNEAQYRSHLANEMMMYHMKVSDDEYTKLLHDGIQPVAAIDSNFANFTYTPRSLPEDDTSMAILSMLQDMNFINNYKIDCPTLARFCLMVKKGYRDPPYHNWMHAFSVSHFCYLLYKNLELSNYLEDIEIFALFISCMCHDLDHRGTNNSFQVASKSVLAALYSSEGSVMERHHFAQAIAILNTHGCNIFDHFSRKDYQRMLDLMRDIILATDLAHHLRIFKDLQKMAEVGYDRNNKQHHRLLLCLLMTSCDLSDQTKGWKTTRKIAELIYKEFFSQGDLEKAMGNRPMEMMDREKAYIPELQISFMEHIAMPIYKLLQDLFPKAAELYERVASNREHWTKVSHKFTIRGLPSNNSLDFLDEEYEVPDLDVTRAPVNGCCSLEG
# [4] = read-out: hPDE2A pIC50 (converted)
# [5] = human clone by default (no (r) mark)
# [6] = human clone by default (no (r) mark), read-out: hPDE10A2 or rPDE10A2 pIC50 (converted)
# [7] = hPDE10A2 or rPDE10A2 pIC50, human clone by default (no (r) mark)
# T1 sequence (O00408 whole entry): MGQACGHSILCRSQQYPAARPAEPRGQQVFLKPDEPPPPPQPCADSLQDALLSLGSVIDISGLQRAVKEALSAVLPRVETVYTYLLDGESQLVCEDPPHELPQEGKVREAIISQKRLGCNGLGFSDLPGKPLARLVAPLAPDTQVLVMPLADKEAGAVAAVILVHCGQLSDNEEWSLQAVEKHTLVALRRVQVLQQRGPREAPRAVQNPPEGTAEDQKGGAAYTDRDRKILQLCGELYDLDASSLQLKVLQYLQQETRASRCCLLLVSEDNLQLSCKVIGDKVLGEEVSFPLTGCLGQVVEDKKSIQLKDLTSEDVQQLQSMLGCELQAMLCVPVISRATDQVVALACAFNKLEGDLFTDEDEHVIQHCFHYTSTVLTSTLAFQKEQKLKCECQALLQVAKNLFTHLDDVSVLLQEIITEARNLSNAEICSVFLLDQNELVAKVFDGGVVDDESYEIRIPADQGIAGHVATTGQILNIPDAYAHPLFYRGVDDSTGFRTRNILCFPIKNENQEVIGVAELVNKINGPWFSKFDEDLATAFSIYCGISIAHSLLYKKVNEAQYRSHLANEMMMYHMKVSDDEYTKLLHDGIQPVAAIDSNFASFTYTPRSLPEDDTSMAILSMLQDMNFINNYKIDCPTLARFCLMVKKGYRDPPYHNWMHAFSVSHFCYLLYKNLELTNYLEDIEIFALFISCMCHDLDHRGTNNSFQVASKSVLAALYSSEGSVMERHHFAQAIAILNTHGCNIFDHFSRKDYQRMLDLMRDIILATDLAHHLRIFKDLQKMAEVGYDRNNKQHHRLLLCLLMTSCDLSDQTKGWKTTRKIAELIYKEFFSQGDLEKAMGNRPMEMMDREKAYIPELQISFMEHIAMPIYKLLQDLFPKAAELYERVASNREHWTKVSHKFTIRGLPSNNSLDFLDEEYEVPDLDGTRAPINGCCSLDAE
# T2 sequence (Q14432 whole entry): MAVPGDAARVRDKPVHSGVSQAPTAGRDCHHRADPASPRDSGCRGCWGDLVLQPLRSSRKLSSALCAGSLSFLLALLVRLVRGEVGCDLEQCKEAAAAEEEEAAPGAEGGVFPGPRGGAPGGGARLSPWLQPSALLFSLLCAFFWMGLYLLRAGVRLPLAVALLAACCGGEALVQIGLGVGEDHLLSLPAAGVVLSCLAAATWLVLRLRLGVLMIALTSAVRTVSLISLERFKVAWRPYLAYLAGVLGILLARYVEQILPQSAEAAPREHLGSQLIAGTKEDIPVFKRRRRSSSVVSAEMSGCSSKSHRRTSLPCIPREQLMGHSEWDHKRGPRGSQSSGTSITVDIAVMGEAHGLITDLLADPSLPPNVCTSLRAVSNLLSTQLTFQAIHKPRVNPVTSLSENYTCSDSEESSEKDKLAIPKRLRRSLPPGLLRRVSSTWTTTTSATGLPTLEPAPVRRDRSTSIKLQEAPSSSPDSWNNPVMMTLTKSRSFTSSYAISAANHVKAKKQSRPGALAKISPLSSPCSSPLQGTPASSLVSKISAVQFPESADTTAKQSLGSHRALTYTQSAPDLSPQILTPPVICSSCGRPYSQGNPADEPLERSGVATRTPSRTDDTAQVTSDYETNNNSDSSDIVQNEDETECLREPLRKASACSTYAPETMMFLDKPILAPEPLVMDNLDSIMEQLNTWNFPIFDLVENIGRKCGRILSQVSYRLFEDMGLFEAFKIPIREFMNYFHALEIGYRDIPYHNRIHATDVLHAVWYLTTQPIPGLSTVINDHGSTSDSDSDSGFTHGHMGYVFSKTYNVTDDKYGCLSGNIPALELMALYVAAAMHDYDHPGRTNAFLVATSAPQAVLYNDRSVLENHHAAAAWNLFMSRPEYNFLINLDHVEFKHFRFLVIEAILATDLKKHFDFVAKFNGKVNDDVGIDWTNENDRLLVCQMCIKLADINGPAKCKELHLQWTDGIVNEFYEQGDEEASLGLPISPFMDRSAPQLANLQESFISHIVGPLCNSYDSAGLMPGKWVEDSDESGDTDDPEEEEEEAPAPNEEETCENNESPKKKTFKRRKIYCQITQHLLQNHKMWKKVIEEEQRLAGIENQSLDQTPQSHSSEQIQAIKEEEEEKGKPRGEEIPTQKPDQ
# T3 sequence (Q9Y233 267-1055): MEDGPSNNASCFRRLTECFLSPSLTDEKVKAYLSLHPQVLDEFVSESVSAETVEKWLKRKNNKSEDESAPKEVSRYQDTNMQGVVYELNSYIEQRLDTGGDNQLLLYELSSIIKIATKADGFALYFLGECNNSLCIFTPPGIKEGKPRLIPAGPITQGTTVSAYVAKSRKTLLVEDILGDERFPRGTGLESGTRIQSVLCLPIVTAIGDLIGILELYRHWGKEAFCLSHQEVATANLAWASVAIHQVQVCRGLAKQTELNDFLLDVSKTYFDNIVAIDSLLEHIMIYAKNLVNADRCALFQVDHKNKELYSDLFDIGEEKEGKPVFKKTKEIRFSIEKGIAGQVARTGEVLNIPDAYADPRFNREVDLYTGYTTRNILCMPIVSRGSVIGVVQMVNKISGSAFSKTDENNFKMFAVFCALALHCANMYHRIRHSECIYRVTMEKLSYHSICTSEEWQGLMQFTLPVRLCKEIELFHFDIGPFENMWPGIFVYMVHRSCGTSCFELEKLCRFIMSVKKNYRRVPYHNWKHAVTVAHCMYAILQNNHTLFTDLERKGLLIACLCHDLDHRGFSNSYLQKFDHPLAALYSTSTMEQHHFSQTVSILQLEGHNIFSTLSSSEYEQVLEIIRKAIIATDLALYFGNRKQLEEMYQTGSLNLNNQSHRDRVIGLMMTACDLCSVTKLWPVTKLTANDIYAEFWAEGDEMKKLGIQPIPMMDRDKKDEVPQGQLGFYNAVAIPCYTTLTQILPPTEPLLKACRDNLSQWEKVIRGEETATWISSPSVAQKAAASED
Structure (SMILES),Emax [1],"IC50 [1, 4]",IC50 ([2]; read-out: pIC50 (converted)),Emax [2],"Emax [3, 5]","IC50 [3, 6]",receptor occupancy at 10 mg/kg (PDE2A),IC50 ([1]; hPDE2A pIC50),IC50 [2],"IC50 [3, 7]","ED50 (PDE2A; po, read-out: PDE Occupancy ED50)"
COc1cc(C(=O)N2[C@H]3CC[C@H](c4cc(C(F)F)nc5ncnn45)[C@@H]2CC3)cc(C)n1 [Compound 290],98%,5.89 nM,6920 nM,53%,89%,1410 nM,-3%,,,,
O=C(c1ccc2cccn2c1)N1[C@H]2CC[C@H](c3cc(C(F)F)nc4ncnn34)[C@@H]1CC2 [Compound 291],101%,2.69 nM,2630 nM,86%,95%,513 nM,38%,,,,
COc1c(C)cc(C(=O)N2[C@H]3CC[C@H](c4cc(C(F)F)nc5ncnn45)[C@@H]2CC3)cc1C [Compound 292],100%,2.51 nM,4680 nM,73%,94%,724 nM,23%,,,,
Cc1cc(C(=O)N2[C@H]3CC[C@H](c4cc(C(F)F)nc5ncnn45)[C@@H]2CC3)cc(OC(F)F)n1 [Compound 293],100%,11.2 nM,3470 nM,80%,90%,1020 nM,6%,,,,
Cc1cc(C(=O)N2[C@H]3CC[C@H](c4cc(C(F)F)nc5ncnn45)[C@@H]2CC3)cc(C(F)F)n1 [Compound 294],99%,10.7 nM,> 10000 nM,14%,81%,2090 nM,17%,,,,
COc1cccc2c1OCC(C(=O)N1[C@H]3CC[C@H](c4cc(C(F)F)nc5ncnn45)[C@@H]1CC3)=C2 [Compound 296],99%,0.457 nM,794 nM,93%,100%,120 nM,88%,,,,
Cn1cc(C(=O)N2[C@H]3CC[C@H](c4cc(C(F)F)nc5ncnn45)[C@@H]2CC3)c2ccccc21 [Compound 297],97%,2.34 nM,5890 nM,62%,96%,589 nM,-2%,,,,
Cc1cc(C(=O)N2[C@H]3CC[C@H](c4cc(C(F)F)nc5ncnn45)[C@@H]2CC3)cc(C)c1C#N [Compound 299],99%,7.76 nM,> 10000 nM,40%,84%,2140 nM,31%,,,,
Cn1c(C(=O)N2[C@H]3CC[C@H](c4cc(C(F)F)nc5ncnn45)[C@@H]2CC3)cc2ccccc21 [Compound 300],100%,6.46 nM,2000 nM,88%,80%,2880 nM,-11%,,,,
COc1cc(C(=O)N2[C@H]3CC[C@H](c4cc(C(F)F)nc5ncnn45)[C@@H]2CC3)cc(OC)n1 [Compound 301],100%,8.13 nM,6310 nM,62%,89%,1260 nM,-7%,,,,
Cc1cc(C)cc(C(=O)N2[C@H]3CC[C@H](c4cc(C(F)F)nc5ncnn45)[C@@H]2CC3)c1 [Compound 302],101%,6.46 nM,7940 nM,59%,93%,891 nM,1%,,,,
Cc1nc2ccc(C(=O)N3[C@H]4CC[C@H](c5cc(C(F)F)nc6ncnn56)[C@@H]3CC4)cc2o1 [Compound 303],99%,7.08 nM,6610 nM,57%,95%,537 nM,17%,,,,
Cc1cc2ccc(C(=O)N3[C@H]4CC[C@H](c5cc(C(F)F)nc6ncnn56)[C@@H]3CC4)cn2c1 [Compound 307],99%,,,88%,97%,,8%,9.12 nM,1480 nM,603 nM,
O=C(c1ccc2ccccc2n1)N1[C@H]2CC[C@H](c3cc(C(F)F)nc4ncnn34)[C@@H]1CC2 [Compound 308],98%,,,72%,66%,,18%,17.4 nM,4570 nM,6760 nM,
O=C(c1cnc2c(F)cccc2c1)N1[C@H]2CC[C@H](c3cc(C(F)F)nc4ncnn34)[C@@H]1CC2 [Compound 309],100%,2.95 nM,7590 nM,53%,86%,1510 nM,12%,,,,
O=C(c1ccc2ncccc2c1)N1[C@H]2CC[C@H](c3cc(C(F)F)nc4ncnn34)[C@@H]1CC2 [Compound 311],96%,1.1 nM,7410 nM,62%,96%,427 nM,-1%,,,,
O=C(c1ccc2ncc(F)cc2c1)N1[C@H]2CC[C@H](c3cc(C(F)F)nc4ncnn34)[C@@H]1CC2 [Compound 312],99%,21.9 nM,> 10000 nM,37%,93%,617 nM,-16%,,,,
O=C(c1cnc2ccccc2c1)N1[C@H]2CC[C@H](c3cc(C(F)F)nc4ncnn34)[C@@H]1CC2 [Compound 313],97%,1.35 nM,6030 nM,61%,86%,1230 nM,28%,,,,
O=C(c1ccc2cnccc2c1)N1[C@H]2CC[C@H](c3cc(C(F)F)nc4ncnn34)[C@@H]1CC2 [Compound 314],100%,5.75 nM,3550 nM,73%,91%,933 nM,5%,,,,
O=C(c1ccc2ccccc2c1)N1[C@H]2CC[C@H](c3cc(C(F)F)nc4ncnn34)[C@@H]1CC2 [Compound 319],100%,1.12 nM,1020 nM,95%,99%,263 nM,37%,,,,
Cc1nn(C)c2sc(C(=O)N3[C@H]4CC[C@H](c5cc(C(F)F)nc6ncnn56)[C@@H]3CC4)cc12 [Compound 335],102%,0.955 nM,7240 nM,52%,98%,87.1 nM,88%,,,,0.985 mg/kg
Cc1cc(Cl)cc(C(=O)N2[C@H]3CC[C@H](c4cc(C(F)F)nc5ncnn45)[C@@H]2CC3)c1 [Compound 339],101%,6.61 nM,4790 nM,69%,95%,617 nM,-1%,,,,
Cc1cc(C(=O)N2[C@H]3CC[C@H](c4cc(C(F)F)nc5ncnn45)[C@@H]2CC3)cc(C)c1F [Compound 346],100%,5.25 nM,6030 nM,68%,92%,724 nM,19%,,,,
Cc1csc(C(=O)N2[C@H]3CC[C@H](c4cc(C(F)F)nc5ncnn45)[C@@H]2CC3)c1 [Compound 347],101%,,,63%,91%,,11%,5.37 nM,7240 nM,1000 nM,

# From patent publication US10947242B2, “[1,2,4]triazolo[1,5and#8208;A]pyrimidine compounds as PDE2 inhibitors” (Janssen Pharmaceutica NV, priority 2016, dated 2021)
